Assay results reported in the supplement of paper PMC10307832.

Legend:
Experiment in all cases: relative viability (nuclei count vs DMSO), 5 days (fraction); higher = more cells survive
Bosutinib = compound: COc1cc(Nc2c(C#N)cnc3cc(OCCCN4CCN(C)CC4)c(OC)cc23)c(Cl)cc1Cl [Bosutinib]
How it was run: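 Hoechst staining, done together with fixation and permeabilisation, marked nuclei for 4× imaging and MetaXpress counting. This followed 5 days without medium change after lung cancer cell lines, kept overnight at 37 °C in 1536-well plates, were pinned with five library-drug doses (not always all listed) spaced by √10 on vehicle-anchored plates. Viability is the ratio of treated-well to vehicle-well nuclei, expressed as a median across plates. Plates passed only at control CV below 25% with at least one doubling.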

Bosutinib + Luminespib = compound: COc1cc(Nc2c(C#N)cnc3cc(OCCCN4CCN(C)CC4)c(OC)cc23)c(Cl)cc1Cl [Bosutinib] + CCNC(=O)c1noc(-c2cc(C(C)C)c(O)cc2O)c1-c1ccc(CN2CCOCC2)cc1 [Luminespib] (partner 0.01 µM)
How it was run: (§1)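 Relative viability is defined as nuclei in treated wells over nuclei in vehicle wells. Duplicate plates were run and medians reported. Lung cancer cell lines in 1536-well plates were dosed by pin tool one day after seeding, with one drug or with a fixed anchor-drug dose plus five library-drug doses (not always all listed) in √10 steps, and nuclei were counted after 5 days.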

Bosutinib + Crizotinib = compound: COc1cc(Nc2c(C#N)cnc3cc(OCCCN4CCN(C)CC4)c(OC)cc23)c(Cl)cc1Cl [Bosutinib] + C[C@@H](Oc1cc(-c2cnn(C3CCNCC3)c2)cnc1N)c1c(Cl)ccc(F)c1Cl [Crizotinib] (partner 1 µM)
How it was run: as §1

Bosutinib + Linsitinib = compound: COc1cc(Nc2c(C#N)cnc3cc(OCCCN4CCN(C)CC4)c(OC)cc23)c(Cl)cc1Cl [Bosutinib] + C[C@]1(O)C[C@@H](c2nc(-c3ccc4ccc(-c5ccccc5)nc4c3)c3c(N)nccn32)C1 [Linsitinib] (partner 1 µM)
How it was run: as §1

Bosutinib + Vorinostat = compound: COc1cc(Nc2c(C#N)cnc3cc(OCCCN4CCN(C)CC4)c(OC)cc23)c(Cl)cc1Cl [Bosutinib] + O=C(CCCCCCC(=O)Nc1ccccc1)NO [Vorinostat] (partner 1 µM)
How it was run: as §1

Row | Cell Line | relative viability (Bosutinib; 0.01 µM) | relative viability (Bosutinib; 0.03162 µM) | relative viability (Bosutinib; 0.1 µM) | relative viability (Bosutinib; 1 µM) | relative viability (Bosutinib + Luminespib; first compound 0.01 µM) | relative viability (Bosutinib + Luminespib; first compound 0.03162 µM) | relative viability (Bosutinib + Luminespib; first compound 0.1 µM) | relative viability (Bosutinib + Luminespib; first compound 1 µM) | relative viability (Bosutinib + Crizotinib; first compound 0.01 µM) | relative viability (Bosutinib + Crizotinib; first compound 0.03162 µM) | relative viability (Bosutinib + Crizotinib; first compound 0.1 µM) | relative viability (Bosutinib + Crizotinib; first compound 1 µM) | relative viability (Bosutinib + Linsitinib; first compound 0.01 µM) | relative viability (Bosutinib + Linsitinib; first compound 0.03162 µM) | relative viability (Bosutinib + Linsitinib; first compound 0.1 µM) | relative viability (Bosutinib + Linsitinib; first compound 1 µM) | relative viability (Bosutinib + Vorinostat; first compound 0.01 µM) | relative viability (Bosutinib + Vorinostat; first compound 0.03162 µM) | relative viability (Bosutinib + Vorinostat; first compound 0.1 µM) | relative viability (Bosutinib + Vorinostat; first compound 1 µM)
1 | NCI-H2347 | 1.03 | 1.09 | 0.992 | 1.06 | 0.39 | 0.507 | 0.472 | 0.266 | 0.835 | 0.877 | 0.914 | 0.648 | 1.08 | 1 | 1.01 | 0.987 | 0.461 | 0.579 | 0.654 | 0.543
2 | NCI-H2405 | 1.05 | 1.1 | 1.03 | 0.801 | 0.661 | 0.645 | 0.696 | 0.439 | 0.945 | 0.855 | 0.891 | 0.576 | 0.953 | 0.949 | 0.954 | 0.418 | 1.04 | 1.33 | 1.39 | 0.766
3 | NCI-H3122 | 1.02 | 1.02 | 1.01 | 0.993 | 0.0649 | 0.0933 | 0.104 | 0.104 | 0.287 | 0.282 | 0.328 | 0.322 | 0.981 | 0.995 | 1.09 | 0.989 | 0.991 | 0.917 | 0.967 | 0.953
4 | PC-3 [JPC-3] | 1.04 | 1.07 | 1.06 | 0.745 | 0.679 | 0.835 | 0.685 | 0.569 | 0.899 | 0.939 | 0.978 | 0.942 | 0.954 | 0.957 | 0.971 | 0.912 | 0.853 | 0.983 | 0.918 | 0.541
5 | PC-14 | 1.03 | 0.977 | 0.871 | 0.336 | 0.109 | 0.394 | 0.126 | 0.16 | 0.807 | 0.928 | 0.788 | 0.313 | 0.927 | 1.01 | 0.884 | 0.285 | 0.783 | 0.694 | 0.673 | 0.126
6 | RERF-LC-KJ | 0.997 | 0.971 | 0.978 | 0.948 | 1.22 | 1.21 | 1.18 | 1.15 | 0.863 | 0.827 | 0.846 | 0.88 | 0.893 | 0.885 | 0.845 | 0.838 | 0.691 | 0.705 | 0.733 | 0.811
7 | SK-LU-1 | 0.995 | 1.06 | 1.05 | 0.629 | 0.199 | 0.189 | 0.212 | 0.187 | 0.9 | 0.819 | 0.807 | 0.48 | 1.06 | 1.18 | 1.11 | 0.631 | 0.848 | 0.768 | 0.844 | 0.632
8 | SK-MES-1 | 1.02 | 1.01 | 1.01 | 0.815 | 0.812 | 0.839 | 0.765 | 0.284 | 0.954 | 1.03 | 0.997 | 0.96 | 1.16 | 1.07 | 1.08 | 0.941 | 1.21 | 1.13 | 1.12 | 0.812
9 | SW 1573 | 1.05 | 1.02 | 0.941 | 0.924 | 0.267 | 0.956 | 0.246 | 0.183 | 0.655 | 0.813 | 0.917 | 0.782 | 0.778 | 0.75 | 0.807 | 0.801 | 0.89 | 0.843 | 0.593 | 0.788
10 | UMC-11 | 1 | 1.01 | 0.956 | 0.912 | 0.967 | 1.16 | 1.05 | 0.806 | 0.597 | 0.622 | 0.555 | 0.579 | 0.916 | 0.981 | 0.967 | 0.866 | 0.354 | 0.383 | 0.43 | 0.364
